Reference: patent US20210317140A1, “Heterocyclic Compounds and Methods of Use” (MEDIVATION TECHNOLOGIES, INC, priority 2013, published 2021)

Assays:
BTK = target: T1, BTK (Homo sapiens, UniProt Q06187); experiment: BTK kinase assay (HotSpot, 33P ATP); assay type: biochemical; conditions: for BTK @ 0.1 μM (% Inh): 0.1 μM compound, 10 μM ATP; for IC50: 10 dose IC50, 10 μM ATP
T1 construct: purchased Reaction Biology Corporation
Procedure, shortened: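 In 20 mM Hepes (pH 7.5) with 10 mM MgCl2, 1 mM EGTA, 0.1 mM Na3VO4, 2 mM DTT, 0.02% Brij35, 0.02 mg/mL BSA and 1% DMSO, kinase and substrate were exposed to ten compound doses for 15–20 min.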

PI3Kδ = target: T2, PI3Kδ (Homo sapiens, UniProt O00329); experiment: PI3Kδ kinase assay (HTRF, PIP3 detection); assay type: biochemical; conditions: for PI3Kδ @ 0.1 μM (% Inh): 0.1 μM compound, 10 μM ATP; for IC50: 10 dose IC50, 10 μM ATP
T2 construct: purchased Reaction Biology Corporation
Procedure, shortened: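 PIP3 formation read by loss of energy transfer as it displaces biotin-PIP3 from a Eu anti-GST/GST-PH/streptavidin-APC complex, calibrated against PIP3 standards.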

T1 sequence (Q06187 whole entry): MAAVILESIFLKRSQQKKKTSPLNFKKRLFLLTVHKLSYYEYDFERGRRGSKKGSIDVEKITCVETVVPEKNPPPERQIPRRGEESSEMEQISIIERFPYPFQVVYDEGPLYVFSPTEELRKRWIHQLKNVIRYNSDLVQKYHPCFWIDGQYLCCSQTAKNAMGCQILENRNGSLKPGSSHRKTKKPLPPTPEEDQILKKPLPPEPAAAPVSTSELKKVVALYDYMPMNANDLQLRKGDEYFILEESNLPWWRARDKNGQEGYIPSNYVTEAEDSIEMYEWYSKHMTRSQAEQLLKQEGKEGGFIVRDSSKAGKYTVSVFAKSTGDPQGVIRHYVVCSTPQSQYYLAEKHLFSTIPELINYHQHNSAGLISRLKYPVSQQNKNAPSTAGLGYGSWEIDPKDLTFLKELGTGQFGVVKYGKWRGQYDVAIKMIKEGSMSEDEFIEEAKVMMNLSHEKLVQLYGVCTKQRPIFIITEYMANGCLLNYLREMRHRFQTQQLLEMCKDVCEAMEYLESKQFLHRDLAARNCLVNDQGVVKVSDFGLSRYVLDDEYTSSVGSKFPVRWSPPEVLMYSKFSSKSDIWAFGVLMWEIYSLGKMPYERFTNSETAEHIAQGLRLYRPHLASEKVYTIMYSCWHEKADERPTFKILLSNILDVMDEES
T2 sequence (O00329 whole entry): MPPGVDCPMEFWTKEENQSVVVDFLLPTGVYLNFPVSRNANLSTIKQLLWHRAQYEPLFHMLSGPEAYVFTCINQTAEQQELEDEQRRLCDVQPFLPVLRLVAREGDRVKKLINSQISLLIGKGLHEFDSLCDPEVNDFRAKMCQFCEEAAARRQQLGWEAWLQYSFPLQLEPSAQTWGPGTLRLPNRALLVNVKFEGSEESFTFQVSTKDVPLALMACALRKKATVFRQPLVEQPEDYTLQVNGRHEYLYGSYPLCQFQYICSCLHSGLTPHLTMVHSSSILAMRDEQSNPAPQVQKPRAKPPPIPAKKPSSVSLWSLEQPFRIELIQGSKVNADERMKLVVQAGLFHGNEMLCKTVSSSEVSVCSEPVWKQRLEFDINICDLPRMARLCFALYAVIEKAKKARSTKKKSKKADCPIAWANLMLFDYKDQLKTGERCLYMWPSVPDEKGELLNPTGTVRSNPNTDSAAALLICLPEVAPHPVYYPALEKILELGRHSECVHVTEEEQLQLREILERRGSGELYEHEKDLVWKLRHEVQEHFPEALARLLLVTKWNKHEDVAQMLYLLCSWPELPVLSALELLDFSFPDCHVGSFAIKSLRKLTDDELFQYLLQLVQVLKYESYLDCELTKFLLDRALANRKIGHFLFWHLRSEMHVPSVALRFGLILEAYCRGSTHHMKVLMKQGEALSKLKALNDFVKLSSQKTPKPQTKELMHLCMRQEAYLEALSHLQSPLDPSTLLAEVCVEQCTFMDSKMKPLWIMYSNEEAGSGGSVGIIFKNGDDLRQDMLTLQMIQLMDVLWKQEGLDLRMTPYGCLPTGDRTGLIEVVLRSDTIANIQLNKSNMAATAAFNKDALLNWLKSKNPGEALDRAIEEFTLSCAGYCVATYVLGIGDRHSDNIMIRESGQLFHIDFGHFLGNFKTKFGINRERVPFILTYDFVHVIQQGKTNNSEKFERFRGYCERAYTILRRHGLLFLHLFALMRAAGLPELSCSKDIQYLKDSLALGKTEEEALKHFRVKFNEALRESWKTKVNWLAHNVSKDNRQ
T2 sequence (P27986 whole entry partner): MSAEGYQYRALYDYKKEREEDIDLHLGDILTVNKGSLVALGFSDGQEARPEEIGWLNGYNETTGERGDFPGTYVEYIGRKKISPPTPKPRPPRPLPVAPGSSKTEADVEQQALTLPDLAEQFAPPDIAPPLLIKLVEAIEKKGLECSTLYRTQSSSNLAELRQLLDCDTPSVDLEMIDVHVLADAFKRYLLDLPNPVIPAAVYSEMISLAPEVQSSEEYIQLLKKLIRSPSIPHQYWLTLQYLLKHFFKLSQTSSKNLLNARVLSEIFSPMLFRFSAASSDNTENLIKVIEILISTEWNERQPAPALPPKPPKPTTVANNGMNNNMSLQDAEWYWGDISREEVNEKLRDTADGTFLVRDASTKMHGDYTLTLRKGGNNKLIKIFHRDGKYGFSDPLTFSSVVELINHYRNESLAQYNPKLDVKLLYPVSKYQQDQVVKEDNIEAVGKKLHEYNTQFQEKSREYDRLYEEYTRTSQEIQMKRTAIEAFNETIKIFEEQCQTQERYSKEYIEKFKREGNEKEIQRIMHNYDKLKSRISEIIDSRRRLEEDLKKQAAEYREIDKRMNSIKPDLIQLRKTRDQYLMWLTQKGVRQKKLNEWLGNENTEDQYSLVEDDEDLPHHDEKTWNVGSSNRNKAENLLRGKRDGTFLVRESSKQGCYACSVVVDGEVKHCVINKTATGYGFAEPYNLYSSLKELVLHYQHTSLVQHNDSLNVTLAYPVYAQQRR

| Structure (SMILES) | BTK @ 0.1 μM (% Inh) (BTK) | PI3Kδ @ 0.1 μM (% Inh) (PI3Kδ) | IC50 (BTK) [nM] | IC50 (PI3Kδ) [nM] |
| --- | --- | --- | --- | --- |
| Nc1ncnc2c1c(-c1ccc(F)c(O)c1)nn2C1CCCc2ccccc21 (centres unmarked) [compound 12, 5-(4-amino-1-tetralin-1-yl-pyrazolo[3,4-d]pyrimidin-3-yl)-2-fluoro-phenol] | 31.62 | 6.22 |  |  |
| Nc1ncnc2c1c(-c1ccc(O)c(F)c1)nn2C1CCc2ccccc2C1 (centres unmarked) [compound 22, 4-(4-amino-1-(1,2,3,4-tetrahydronaphthalen-2-yl)-1H-pyrazolo[3,4-d]pyrimidin-3-yl)-2-fluorophenol] |  |  | 293 | 39.6 |
| COc1ncc(-c2nn(C3CCc4ccccc4C3)c3ncnc(N)c23)cc1F (centres unmarked) [compound 23, 3-(5-fluoro-6-methoxypyridin-3-yl)-1-(1,2,3,4-tetrahydronaphthalen-2-yl)-1H-pyrazolo[3,4-d]pyrimidin-4-amine] | 15.45 | 23.11 |  |  |
| Nc1ncnc2c1c(-c1ccc(O)nc1)nn2C1CCc2ccccc2C1 (centres unmarked) [compound 24, 5-(4-amino-1-(1,2,3,4-tetrahydronaphthalen-2-yl)-1H-pyrazolo[3,4-d]pyrimidin-3-yl)pyridin-2-ol] | 5.45 | 10.3 |  |  |
| Nc1ncnc2c1c(-c1ccc(Cl)nc1)nn2C1CCc2ccccc2C1 (centres unmarked) [compound 25, 3-(6-chloro-3-pyridyl)-1-tetralin-2-yl-pyrazolo[3,4-d]pyrimidin-4-amine] | 20.21 | 27.39 |  |  |
| NC(=O)c1cccc(-c2nn(C3CCc4ccccc4C3)c3ncnc(N)c23)c1 (centres unmarked) [compound 27, 3-(4-amino-1-tetralin-2-yl-pyrazolo[3,4-d]pyrimidin-3-yl)benzamide] | 13.54 | 4.7 |  |  |
| NC(=O)c1ccc(-c2nn(C3CCc4ccccc4C3)c3ncnc(N)c23)cc1 (centres unmarked) [compound 28, 4-(4-amino-1-tetralin-2-yl-pyrazolo[3,4-d]pyrimidin-3-yl)benzamide] | 14.0 | 15.27 |  |  |
| Nc1ncnc2c1c(-c1cc(O)cc(F)c1)nn2C1CCc2ccccc21 (centres unmarked) [compound 30, 3-(4-amino-1-indan-1-yl-pyrazolo[3,4-d]pyrimidin-3-yl)-5-fluoro-phenol] | 35.16 | 64.19 | 217 | 13 |
| C=CC(=O)N1CC(n2nc(-c3cnc(OC)c(F)c3)c3c(N)ncnc32)Cc2cc(C)ccc21 (centres unmarked) [compound 32, 1-(3-(4-amino-3-(5-fluoro-6-methoxypyridin-3-yl)-1H-pyrazolo[3,4-d]pyrimidin-1-yl)-6-methyl-3,4-dihydroquinolin-1 (2H)-yl)prop-2-en-1-one] | 13.50 | 11.3 | 877 | 1490 |
| COc1ccc(-c2nn(C3CCCc4ccccc43)c3ncnc(N)c23)cc1OC (centres unmarked) [compound 33, 3-(3,4-dimethoxyphenyl)-1-(1,2,3,4-tetrahydronaphthalen-1-yl)-1H-pyrazolo[3,4-d]pyrimidin-4-amine] | 7.04 | 27.41 |  |  |
| COc1ccc(-c2nn(C3CCc4ccccc43)c3ncnc(N)c23)cc1OC (centres unmarked) [compound 34, 1-(2,3-dihydro-1H-inden-1-yl)-3-(3,4-dimethoxyphenyl)-1H-pyrazolo[3,4-d]pyrimidin-4-amine] | 23.12 | 51.63 |  |  |
| Nc1ncnc2c1c(-c1ccc(Br)c(O)c1)nn2C1CCc2ccccc21 (centres unmarked) [compound 36, 5-[4-amino-1-(2,3-dihydro-1H-inden-1-yl)-1H-pyrazolo[3,4-d]pyrimidin-3-yl]-2-bromophenol] | 43.28 | 56.42 |  |  |
| Nc1ncnc2c1c(-c1ccc3cc[nH]c3c1)nn2C1CCc2ccccc21 (centres unmarked) [compound 37, 1-(2,3-dihydro-1H-inden-1-yl)-3-(1H-indol-6-yl)-1H-pyrazolo[3,4-d]pyrimidin-4-amine] | 29.59 | 15.52 |  |  |
| Nc1ncnc2c1c(-c1ccc3cc[nH]c3c1)nn2C1CCCc2ccccc21 (centres unmarked) [compound 38, 3-(1H-indol-6-yl)-1-(1,2,3,4-tetrahydronaphthalen-1-yl)-1H-pyrazolo[3,4-d]pyrimidin-4-amine] | 15.94 | 7.33 |  |  |
